Values quoted from earlier work, collected in US5271935A, “Antibiotic, cammunocin, a process for the preparation thereof, and the use thereof as a pharmaceutical” (Hoechst Aktiengesellschaft, priority 1988, dated 1993).

Tested on: Gram-positive bacteria
Conditions: other known antibiotics

For amphomycin, the “requirement for calcium ions to show an antibiotic effect” value is given as 1.0 mM.
